Among the data in patent publication US5610310A, “Cyclic lipid derivatives as potent PAF antagonists” (Pohang Iron & Steel Co., Ltd, priority 1995, dated 1997) are IC50, Ki and inhibition values, retold here.

Each structure is given as a SMILES string.

Test [1] deals with PAF-induced platelet aggregation, rabbit platelet-rich plasma. Briefly: Inhibitory action on PAF-induced platelet aggregation. In kind it is cell-based, rabbit (New Zealand white). The settings on record: Oryctolagus cuniculus, rabbit PRP, PAF 5×10^-9 M, 37° C. On the procedure: Inhibitory action on PAF-induced platelet aggregation Blood was collected from the […] of conscious New Zealand white male rabbits weighing 2 to 3 kg using citric acid as an anticoagulant (one volume pan of 3% citric acid relative to 9 volume parts of the whole blood). […] PRP was diluted with PPP to adjust the number of platelets to about 3×10^5 /μl. […] Platelet aggregation was then examined by means of turbidimetry [Born, Nature, 194, 927(1962)] with dual channel aggegometer (Chrono-Log. Corp., Havertown, Pa.). As the control, physiological saline without test sample was used. The platelet aggregation inhibiting activities of the test sample are expressed as IC50, that is the concentration of the compound at which 50% of the aggregation is inhibited.

The target of test [2] is T1, PAF receptor (rabbit platelet membranes) (Oryctolagus cuniculus, UniProt G1TEI7).
T1 construct: Rabbit platelets were prepared by centrifugation and washing; tissue Pel-Freez (Rogers, AR); host or cells: rabbit platelets (washed, from citrated whole blood; lysed membranes)
The test is described as follows: PAF Receptor Binding Assay. As to conditions: 0.6 nM [^3 H]C18 -PAF, 60 minutes, room temperature, calculated as IC50/2. On the procedure:
PAF Receptor Binding Assay Citrated whole rabbit blood was obtained from Pel-Freez(Rogers, AR). Rabbit platelets were prepared by centrifugation and washing. The platelets were lysed by freeze-thawing and sonification; Platelet membranes were prepared by centrifugation and washing. Final membrane preparation were stored frozen in 10 mM Tris/5 mM MgCl2 /2 mM EDTA (TME buffer, pH 7.0) with 0.25M sucrose added for membrane stabilization. […] The final volume of the assay was 100 μl. […] The […] and removed. The bound radioactivity was quantitated with a Berthold TLC-Linear Analyzer model LB2842. […] Experiments were repeated at least once. […] Ki values of inhibitory binding constants were calculated according to the methods of the literature[Cheng et al., Biochem.

Test [3] deals with PAF-induced [^14 C]-serotonin release, rabbit platelets. Briefly: Inhibitory action on PAF-induced [^14 C]-serotonin release. It is filed as cell-based, rabbit (New Zealand white). The settings on record: Oryctolagus cuniculus, Platelet, PAF 1×10^-9 M. On the procedure:
Inhibitory action on PAF-induced [^14 C]-serotonin release
Blood was collected from the hearts of conscious New Zealand white male rabbits weighing 2 to 3 kg. The blood was immediately subjected to a centrifuge at 1400 rpm for 10 minutes to obtain platelet rich plasma(PRP).PRP was incubated with a trace mount of [^14 C]-serotonin for 20 minutes at 22° C. Prelabelled platelets were prepared by centrifugation at 3500 rpm for 10 minutes. The test compound was added to 80 μl of [^14 C] serotonin-labeled platelets in plastic test tubes, and the mixture was incubated for 2 minutes. PAF (1×10^-9 M) was then added to the reaction mixture and incubated for additional 2 minutes at which time 10 μl of cold formaldehyde was added to stop the reactions. The tubes were immediately cooled to 4° C. and centrifuged at 12000 rpm for 2 minutes. The supernatants (80 μl) were assayed for percentage of [^14 C] serotonin release by the conventional methods of measuring ^14 C counts.

T1 sequence (G1TEI7 1-342): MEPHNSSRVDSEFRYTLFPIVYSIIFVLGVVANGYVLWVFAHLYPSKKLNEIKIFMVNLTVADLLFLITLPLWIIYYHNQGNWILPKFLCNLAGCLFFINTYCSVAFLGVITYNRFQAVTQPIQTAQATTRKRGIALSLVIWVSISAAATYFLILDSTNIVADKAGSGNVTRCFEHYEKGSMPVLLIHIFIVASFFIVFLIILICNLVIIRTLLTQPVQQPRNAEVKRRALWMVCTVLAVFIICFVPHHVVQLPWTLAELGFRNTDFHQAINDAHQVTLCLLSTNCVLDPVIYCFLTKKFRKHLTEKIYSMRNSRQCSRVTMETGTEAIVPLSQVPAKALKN

As a reminder, the IC50 is the concentration that inhibits the measured activity by half. A higher IC50 goes with lower potency. By Ki is commonly meant the dissociation constant of the complex between target and ligand, obtained from inhibition or displacement. Molecule `CCCCCCCCCCCCCCCCOC[C@H]1C[C@H](COC(=O)N(Cc2cccc[n+]2CC)C(C)=O)S1` (relative stereo) [Example 32, trans-2-[[N-Acetyl-N-[[[4-[(hexadecyloxy)methyl]-2-thietanyl]methoxy]carbonyl]amino]methyl]-1-ethyl-pyridinium chloride] gave an IC50 in test [1] of 52 nM. Further, in test [2], the Ki was 20 nM.
One may read the inhibition as the drop in the measured response relative to a control, in per cent. Read a high inhibition as a response far below the control. With `CCCCCCCCCCCCCCCCCCNC(=O)OCC1(COC(=O)N(Cc2cccc[n+]2CC)C(C)=O)COC1` [Example 6, 2-[[N-Acetyl-N-[[[3-[[(octadecylcarbamoyl)oxy]methyl]-3-oxetanyl]methoxy]carbonyl]amino]methyl]-1-ethyl-pyridinium iodide], the inhibition at 0.2 µM in test [3] (test compound 2 × 10^-7 M) was 98%. For the same molecule, the inhibition at 0.05 µM in test [3] (test compound 5 × 10^-8 M) came to 96%.
For the molecule `CCCCCCCCCCCCCCCCCCNC(=O)OCC1(COC(=O)CCCC[n+]2ccsc2)CCCC1` [Example 22, 3-[4-[[[1-[[(Octadecylcarbamoyl)oxy]methyl]-1-cyclopentyl]methoxy]carbonyl]butyl]thiazolium bromide], 1140 nM corresponded to half-maximal inhibition in test [1] (IC50).
As for `CCCCCCCCCCCCCCCCCCNC(=O)OC[C@H]1C[C@H](COC(=O)CCCC[n+]2cccc3ccccc32)S1` (relative stereo) [Example 34, trans-N-[4-[[[4-[[(Octadecylcarbamoyl)oxy]methyl]-2-thietanyl]methoxy]carbonyl]butyl]quinolinium bromide], in test [1], the IC50 stood at 350 nM.
As for `CCCCCCCCCCCCCCCCNC(=O)OCC1(COC(=O)N(Cc2cccc[n+]2CC)C(C)=O)COC1` [Example 8, 2-[[N-Acetyl-N-[[[3-[[(hexadecylcarbamoyl)oxy]methyl]-3-oxetanyl]methoxy]carbonyl]amino]methyl]-1-ethyl-pyridinium iodide], the half-maximal inhibitory concentration (IC50) in test [1] came to 93 nM. For the same molecule, the Ki in test [2] was 95 nM.
As for `CCCCCCCCCCCCCCCCCCNC(=O)OC[C@H]1C[C@H](COC(=O)N(Cc2cccc[n+]2CC)C(C)=O)S1` (relative stereo) [Example 27, trans-2-[[N-Acetyl-N-[[[4-[[(Octadecylcarbamoyl)oxy]methyl]-2-thietanyl]methoxy]carbonyl]amino]methyl]-1-ethyl-pyridinium chloride], in test [1], the IC50 came to 57 nM. Besides, the Ki in test [2] is 4.3 nM.
The matching figures for `CCCCCCCCCCCCCCCCCCNC(=O)OC[C@H]1C[C@H](COC(=O)N(Cc2cccc[n+]2CC)C(C)=O)C1` [Example 19, trans-2-[[N-Acetyl-N-[[[3-[[(octadecylcarbamoyl)oxy]methyl]-1-cyclobutyl]methoxy]carbonyl]amino]methyl]-1-ethyl-pyridinium iodide]: 56 nM and 4.3 nM.
The matching figures for `CCCCCCCCCCCCCCCCCCNC(=O)OC[C@@H]1C[C@@H](COC(=O)N(Cc2cccc[n+]2CC)C(C)=O)N1C(C)=O` (relative stereo) [Example 43, 2-[[N-Acetyl-N-[[[4-[[(octadecylcarbamoyl)oxy]methyl]-1-acetylazetidine-2-yl]methoxy]carbonyl]amino]methyl]-1-ethyl-pyridinium chloride]: 29 nM and 35 nM.
Consider `CCCCCCCCCCCCCCCCOCC1(COC(=O)N(Cc2cccc[n+]2CC)C(C)=O)COC1` [Example 9, 2-[[N-Acetyl-N-[[[3-[(hexadecyloxy)methyl]-3-oxetanyl]methoxy]carbonyl]amino]methyl]-1-ethyl-pyridinium iodide], for which, in test [1], half-maximal inhibition (IC50) required 219 nM. Moreover, the Ki in test [2] is 110 nM.
The matching figures for `CCCCCCCCCCCCCCCCCCNC(=O)OCC1(COC(=O)N(Cc2cccc[n+]2CC)C(C)=O)CS(=O)(=O)C1` [Example 38, 2-[[N-Acetyl-N-[[[3-[[(octadecylcarbamoyl)oxy]methyl]thietane 1,1-dioxide-3-yl]methoxy]carbonyl]amino]methyl]-1-ethyl-pyridinium iodide]: 178 nM and 278 nM.
The matching figures for `CCCCCCCCCCCCCCCCCCNC(=O)OC[C@@H]1C[C@H](COC(=O)N(Cc2cccc[n+]2CC)C(C)=O)S1` (relative stereo) [Example 28, cis-2-[[N-Acetyl-N-[[[4-[[(octadecylcarbamoyl)oxy]methyl]-2-thietanyl]methoxy]carbonyl]amino]methyl]-1-ethyl-pyridinium chloride]: 61 nM and 9.8 nM.
The matching figures for `CCCCCCCCCCCCCCCCCCNC(=O)OCC1(COC(=O)CCCC[n+]2cccc3ccccc32)CCCC1` [Example 23, N-[4-[[[1-[[(Octadecylcarbamoyl)oxy]methyl]1-cyclopentyl]methoxy]carbonyl]butyl]quinolinium bromide]: 95 nM and 9.4 nM.
The molecule `CCCCCCCCCCCCCCCCNC(=O)OCC1(COC(=O)N(Cc2cccc[n+]2CC)C(C)=O)CCCC1` [Example 20, 2-[[N-Acetyl-N-[[[1-[[(hexadecylcarbamoyl)oxy]methyl]-1-cyclopentyl]methoxy]carbonyl]amino]methyl]-1-ethyl-pyridinium iodide] displayed an IC50 in test [1] of 350 nM. Besides, the Ki in test [2] was 1.2 nM.
In turn, `CCCCCCCCCCCCCCCCCCNC(=O)OC[C@@H]1C[C@@H](COC(=O)N(Cc2cccc[n+]2CC)C(=O)c2ccccc2OC)S1` (relative stereo) [Example 30] gave an IC50 in test [1] of 84 nM.
For the molecule `CCCCCCCCCCCCCCCCCCNC(=O)OCC1(COC(=O)CCCCC[n+]2cccc3ccccc32)CSC1` [Example 41, N-[5-[[[3-[[(Octadecylcarbamoyl)oxy]methyl]-3-thietanyl]methoxy]carbonyl]pentyl]quinolinium bromide], in test [1], half-maximal inhibition (IC50) was put at 57 nM. Moreover, the Ki in test [2] was 30 nM.
The matching figures for `CCCCCCCCCCCCCCCCCCNC(=O)OCC1(COC(=O)N(Cc2cccc[n+]2CC)C(C)=O)C[S+]([O-])C1` (stereo not drawn) [Example 37, 2-[[N-Acetyl-N-[[[3-[[(octadecylcarbamoyl)oxy]methyl]thietane 1-oxide-3-yl]methoxy]carbonyl]amino]methyl]-1-ethyl-pyridinium iodide]: 125 nM and 9.3 nM.
Molecule `CCCCCCCCCCCCCCCCCCNC(=O)OC[C@H]1C[C@H](COCCCC[n+]2cccc3ccccc32)S1` (relative stereo) [Example 35, trans-N-[4-[[4-[[(Octadecylcarbamoyl)oxy]methyl]-2-thietanyl]methoxy]butyl]quinolinium bromide] gave an IC50 in test [1] of 275 nM.
On the same count and under the same terms, under `CCCCCCCCCCCCCCCCNC(=O)OC[C@@H]1C[C@@H](COC(=O)N(Cc2cccc[n+]2CC)C(=O)c2ccccc2OC)S1` (relative stereo) [Example 31, trans-2-[[N-(2-Methoxy)benzoyl-N-[[[4-[[(hexadecylcarbamoyl)oxy]methyl]-2-thietanyl]methoxy]carbonyl]amino]methyl]1-ethyl-pyridinium chloride] stands 69 nM.
In test [1], `CCCCCCCCCCCCCCCCNC(=O)OC[C@H]1C[C@H](COC(=O)N(Cc2cccc[n+]2CC)C(C)=O)S1` (relative stereo) [Example 29, trans-2-[[N-Acetyl-N-[[[4-[[(hexadecylcarbamoyl)oxy]methyl]-2-thietanyl]methoxy]carbonyl]amino]methyl]-1-ethyl-pyridinium chloride] returned an IC50 of 21 nM. Moreover, the Ki in test [2] was 9.8 nM.
Consider `CCCCCCCCCCCCCCCCCCNC(=O)OCC1(COC(=O)N(Cc2cccc[n+]2CC)C(C)=O)CCCC1` [Example 16, 2-[[N-Acetyl-N-[[[1-[[(octadecylcarbamoyl)oxy]methyl]-1-cyclopentyl]methoxy]carbonyl]amino]methyl]-1-ethyl-pyridinium iodide], for which, in test [1], half-maximal inhibition (IC50) required 573 nM. Besides, the Ki in test [2] was 3.8 nM.
In test [1], `CCCCCCCCCCCCCCCCOCC1(COC(=O)CCCC[n+]2cccc3ccccc32)CSC1` [Example 42, N-[4-[[[3-[(Hexadecyoxy)methyl]-3-thietanyl]methoxy]carbonyl]butyl]quinolinium bromide] displayed an IC50 of 658 nM.
